# Source: US20110171225A1, “Novel Plasmodium Falciparum Gene Encoding Signal Peptide Peptidase and Method of Using Inhibitors Thereof for Inhibiting Malarial Infection” (The Board of Trustees of the University of Illinois, priority 2008, published 2011)
# Entries after “also recorded” stand apart in the source; their conditions may differ. Like-named read-outs stand apart in the source and are kept apart here. No end group written: not given here.
# T1: SPP (Homo sapiens, UniProt Q8TCT9)
# T1 sequence (Q8TCT9 1-377): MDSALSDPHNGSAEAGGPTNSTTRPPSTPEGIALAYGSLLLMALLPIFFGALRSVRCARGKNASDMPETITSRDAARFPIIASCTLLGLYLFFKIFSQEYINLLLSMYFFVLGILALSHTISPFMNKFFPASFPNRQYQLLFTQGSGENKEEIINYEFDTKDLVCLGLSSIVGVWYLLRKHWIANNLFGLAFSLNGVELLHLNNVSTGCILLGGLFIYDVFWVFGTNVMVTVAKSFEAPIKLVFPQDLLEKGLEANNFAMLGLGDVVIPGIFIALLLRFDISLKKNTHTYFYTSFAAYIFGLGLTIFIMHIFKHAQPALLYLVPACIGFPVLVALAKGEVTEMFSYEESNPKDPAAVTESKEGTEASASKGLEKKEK
# T2: GST-5ABC (GST fused to residues 720-761 of human erythrocyte band 3) (human, UniProt P02730 720-761)
# T2 construct: also called soluble GST-5ABC; GST-5ABC conjugated to beads
# T2 chain: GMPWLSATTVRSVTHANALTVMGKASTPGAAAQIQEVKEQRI
# B1: native Plasmodium falciparum signal peptide peptidase (PfSPP) (enzyme)
# chain: MNLLKLIGKNKKMKNENMGNSIFYYSCYVIIVLTIILSKFVVIPLMAQMFLYTFITIYIGSHDSLKQLEIDDKTKKSDNITAYDAMMFPVIGSAALLTLYFAYKFLDPFYVNLLLTLYLTLAGVFSLQGVFTTILEPVFPNFFKKDEYVKTFKLPNFIYKEPIVFNTNKGEIVCLILSFAIGLRWIFYKDFITHNVLAVSFCFQAISLVILSNFLIGFLLLSGLFVYDIFWVFGNDVMVTVAKSFEAPVKLLFPVSSDPVHYSMLGLGDIIIPGILMSLCLRFDYYLFKNNIHKGNLKKMFNDISIHESFKKYYFYTIIIFYELGLVVTYCMLFYFEHPQPALLYLVPACILAILACSICKREFKLMIKYQEITDKSNTVDDASKNKKKDKEEIPKIQETPVSNAKKRITNK
# notes: also called native PfSPP; native P. falciparum PfSPP
# How the values were obtained:
# [1] = test system: P. falciparum merozoite invasion of human erythrocytes; experiment: RBC invasion by synchronized schizonts with SPP inhibitors, new rings counted; type: cell-based; conditions: increasing concentrations, 20 h, versus DMSO
# From the text: To investigate the role of PfSPP in parasite invasion, a chemical approach was adopted by employing three synthetic inhibitors of mammalian membrane aspartyl proteases. The inhibitor (Z-LL)2-ketone (Calbiochem/EMD Biosciences, Gibbstown, N.J.) is specific for mammalian SPP, whereas the L-685,458 and DAPT inhibitors (both were gift of Dr. S. Sisodia of the University of Chicago) are known to be specific for the γ-secretase/Presenilin-1 complex (FIG. 8A). […] Herein, human erythrocytes with highly synchronized P. falciparum schizonts were incubated in the presence of increasing concentrations of (Z-LL)2-ketone, L-685,458, and DAPT. After 20 h of incubation, the rings were counted from the inhibitor and DMSO treated samples.
# P. falciparum 3D7 = experiment: Parasite growth in human erythrocytes from synchronized ring stage; type: cell-based; conditions: for inhibition of parasite replication (in words): 10 μM, after one cycle of asexual multiplication; for effect on parasite growth in erythrocytes (in words): ring stage parasites, 0.2% DMSO
# From the text: FIG. 9B depicts a graph indicating inhibition of parasite growth as a result of (Z-LL)2-ketone (▪), L-685,458 (•), and DAPT (♦) treatment. […] FIG. 9C is a schematic diagraph showing disruption of the P. falciparum (3D7 strain) PfSPP gene. PfSPP5′ and PfSPP3′ represent 5′ translated region (616 bp) and 3′ translated region (711 bp) of the PfSPP gene, respectively. Dashed lines represent bacterial vector sequences. Bold lines represent untranslated regions of the target PfSPP gene.
# The P. falciparum strain 3D7 (obtained from MR4) was maintained in continuous culture in a 5% suspension of fresh type O+ human erythrocytes in RPMI 1640 at 37° C. under 5% CO2, 5% O2, and 90% N2 by the method of Trager and Jensen (Trager et al., 1976, Science 193:673-5). Ring-stage parasites were synchronized by using 5% sorbitol treatment and late-stage parasites were enriched to >95% by centrifugation in 63% (v/v) Percoll as described (Goel et al., 2003, Proc Natl Acad Sci USA 100:5164-5169). The parasite protein extract was prepared by solubilizing an enriched fraction of mature parasites with an extraction buffer (50 mM Tris-HCl, pH 8.0, 150 mM NaCl, 5 mM EDTA, 5 mM EGTA, 0.5% Triton X-100, 0.5% BSA) supplemented with 2 μg/ml Aprotinin, 1 μg/ml of Leupeptin, Pepstatin A, Bestatin, 10 mM PMSF, and a cocktail of protease inhibitors (Roche, Indianapolis, Ind.). The mixture was kept on ice for 1 h and centrifuged at 12,000 g for 20 min at 4° C. The supernatant was stored at −80° C. in aliquots and used in the antibody characterization and binding assays.
# The effects of the three inhibitors on malaria parasite growth in human erythrocytes were examined Synchronized ring stage parasites were incubated with inhibitors in the presence of 0.2% DMSO. […] The precipitous decline in parasitemia presumably originated from inhibition of late rings or early trophozoites, as pyknotic parasites were observed after 24-48 h of culture in the presence of (Z-LL)2-ketone and L-685,458 (FIG. 4). Destruction of the inhibitor-treated parasites was irreversible, as no progression to the second asexual cycle was observed. In contrast, DAPT had little or no effect on parasite growth as compared to the DMSO-treated control (FIG. 9A).
# P. falciparum 7G8 = experiment: Parasite growth by [3H]-hypoxanthine incorporation; type: cell-based; conditions: 7G8 strain, chloroquine-resistant
# Method: (§1) Since the primary structure of PfSPP is highly conserved, the effect of these inhibitors on the growth of other P. falciparum strains was also tested. The parasite strains tested included two chloroquine-resistant P. falciparum strains (7G8, Dd2), one chloroquine-sensitive strain (HB3), and one mildly chloroquine-resistant strain (FCR3). Parasite growth was evaluated in these four strains by measuring [^3H]-hypoxanthine incorporation starting at 24 h post-invasion. Both (Z-LL)2-ketone and L-685,458 inhibited parasite growth in all 4 parasite strains with the IC50 values similar to 3D7 strain, while DAPT had no effect on any strain (Table 2).
# P. falciparum Dd2 = experiment: Parasite growth by [3H]-hypoxanthine incorporation; type: cell-based; conditions: Dd2 strain, chloroquine-resistant
# Method: as §1
# P. falciparum FCR3 = experiment: Parasite growth by [3H]-hypoxanthine incorporation; type: cell-based; conditions: FCR3 strain, mildly chloroquine-resistant
# Method: as §1
# P. falciparum HB3 = experiment: Parasite growth by [3H]-hypoxanthine incorporation; type: cell-based; conditions: HB3 strain, chloroquine-sensitive
# Method: as §1
# [2] = biological target: T3, γ-secretase/Presenilin-1 complex (Homo sapiens, UniProt P49768); conditions: (Z-LL)2-ketone up to 100 μM; cited from earlier work
# T3 construct: host or cells: live mammalian cells
# [3] = test system: incomplete version of PfSPP lacking the 6 amino acids; conditions: cited from earlier work
# SPP = biological target: T1, SPP; conditions: DAPT at 100 μM; cited from earlier work
# PfSPP = experiment: RBC-binding assay in suspension with native PfSPP from culture supernatant; parameters: species or system P. falciparum; conditions: soluble protein 40 μM, quantified by densitometry of immunoblot
# Method: To carry out a RBC-binding assay in solution using native PfSPP, a spent culture supernatant of P. falciparum containing native PfSPP was prepared as follows. Trophozoites enriched from a 5% sorbitol-synchronized P. falciparum culture were allowed to mature for 16 h to form schizonts and merozoites. The parasites were left in the culture flask to lyse and the proteins were released into the culture supernatant. Aliquots of the culture were centrifuged at either 12,000 g for 20 min or 40,000 g for 15 min at 4° C. The culture supernatant and pellet were analyzed by immunoblot analysis using anti-PfSPP pAbs. The culture supernatant prepared at 12,000 g was stored at −80° C. in aliquots and used in subsequent RBC binding assays. In these assays, a 500 μl sample of P. falciparum culture supernatant was added to untreated, trypsin-treated, chymotrypsin-treated, or neuraminidase-treated intact human RBCs (50 μl packed volume) for 1 h at room temperature. The cells were centrifuged at 12,000 g for 30 s through a layer of silicone oil (500 μl). Proteins bound to RBCs were eluted by incubating the RBCs in 1.5 M NaCl (20 μl) for 30 min at room temperature. Salt-eluted proteins were analyzed by SDS-PAGE followed by immunoblotting using anti-PfSPP Abs. The pretreatment of intact RBCs with enzymes was carried out as described (Goel et al., 2003, Proc Natl Acad Sci USA 100:5164-5169). […]
# [4] = biological target: T2, GST-5ABC (GST fused to residues 720-761 …); experiment: bead pull-down (GST-5ABC on GSH beads), immunoblot with anti-PfSPP/ER pAbs
# [5] = 3D7 strain, read-out: IC50 parasite growth
# [6] = FIG. 9B legend, read-out: IC50 for live parasites
Molecule,effect on parasite/merozoite invasion (in words) [1],inhibition of parasite replication (in words) (P. falciparum 3D7),IC50 (P. falciparum 3D7; [5]),IC50 (P. falciparum 3D7; [6]),effect on parasite growth in erythrocytes (in words) (P. falciparum 3D7),IC50 (P. falciparum 7G8),IC50 (P. falciparum Dd2),IC50 (P. falciparum FCR3),IC50 (P. falciparum HB3),inhibition of γ-secretase/Presenilin-1 activity (in words) [2],inhibition of in vitro enzyme activity (in words) [3],effect on SPP activity (in words) (SPP),decrease of binding of PfSPP to RBCs (PfSPP),binding result [4]
CC(C)C[C@H](NC(=O)OCc1ccccc1)C(=O)N[C@@H](CC(C)C)C(=O)NCC(=O)CNC(=O)[C@H](CC(C)C)NC(=O)[C@H](CC(C)C)NC(=O)OCc1ccccc1 [(Z-LL)2-ketone],efficiently inhibited; also recorded: significant decrease in the number of new rings,complete inhibition,985 nM,985 nM,significant inhibition,1120 ± 50 nM,1080 ± 70 nM,1230 ± 40 nM,1060 ± 50 nM,does not inhibit,inhibited,–,–,–
"C[C@H](NC(=O)[C@@H](O)c1cc(F)cc(F)c1)C(=O)N[C@@H]1C(=O)N(C)c2ccccc2-c2ccccc21 [LY411,575]",–,–,–,–,–,–,–,–,–,–,inhibited,–,–,–
C[C@H](NC(=O)Cc1cc(F)cc(F)c1)C(=O)N[C@H](C(=O)OC(C)(C)C)c1ccccc1 [DAPT],minimal effect; also recorded: no effect,–,–,–,no effect,> 10000 nM,> 10000 nM,> 10000 nM,> 10000 nM,–,–,no effect,–,–
"GST-5ABC: GST fusion protein of 5ABC peptide, residues 720-761 of human band 3 (SEQ ID NO:7) (GMPWLSATTVRSVTHANALTVMGKASTPGAAAQIQEVKEQRI; also: GST fusion; UniProt P02730 720-761, looked up, fragment)",–,–,–,–,–,–,–,–,–,–,–,–,94%,–
"CC(C)C[C@H](NC(=O)[C@H](Cc1ccccc1)C[C@@H](O)[C@H](Cc1ccccc1)NC(=O)OC(C)(C)C)C(=O)N[C@@H](Cc1ccccc1)C(N)=O [L-685,458]",efficiently inhibited; also recorded: significant decrease in the number of new rings,complete inhibition,174 nM,174 nM,significant inhibition,210 ± 40 nM,180 ± 30 nM,230 ± 30 nM,190 ± 20 nM,inhibited,–,inhibited,–,–
B1,–,–,–,–,–,–,–,–,–,–,–,–,–,binds
